Three compounds from patent US6608086B2, “Dihydropyridines and new uses thereof” (Synaptic Pharmaceutical Corporation, priority 1993, dated 2003) can be followed below.

For orientation: Ki means a dissociation constant, usually derived from enzyme kinetics or from competition with a known ligand. High values mean weaker binding, low ones tighter binding. What is called pA2 is a measure of antagonist potency on a negative log scale. A high value points to higher antagonist potency. What is called melting point is the temperature of the solid-liquid transition.

For one data set, the target named is T1, α2B receptor (Homo sapiens, UniProt P18089).
T1 construct: host or cells: LM(tk-) cells, line L-NGC-α2B
T1 sequence (P18089 1-450): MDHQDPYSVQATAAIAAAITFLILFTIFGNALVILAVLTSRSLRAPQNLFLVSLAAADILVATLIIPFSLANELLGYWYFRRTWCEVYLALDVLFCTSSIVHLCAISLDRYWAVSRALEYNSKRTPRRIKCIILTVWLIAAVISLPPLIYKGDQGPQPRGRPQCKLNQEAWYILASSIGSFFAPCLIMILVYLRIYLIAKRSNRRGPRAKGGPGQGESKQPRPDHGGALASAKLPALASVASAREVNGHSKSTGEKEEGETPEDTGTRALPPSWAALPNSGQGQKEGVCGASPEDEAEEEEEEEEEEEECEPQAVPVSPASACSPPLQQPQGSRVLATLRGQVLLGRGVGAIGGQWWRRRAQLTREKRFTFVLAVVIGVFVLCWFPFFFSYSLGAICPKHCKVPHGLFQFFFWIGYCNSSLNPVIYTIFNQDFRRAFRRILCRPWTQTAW
Put plainly: Competition binding, [3H]rauwolscine, human α2B receptor. As to conditions: pKi alpha-2 2b, [3H]rauwolscine. The gist of the method: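 Cell lysates from stably transfected LM(tk−) lines are resuspended in 25 mM glycylglycine (pH 7.6 at room temperature), incubated to equilibrium with 0.5 nM [3H]rauwolscine plus competitor, then filtered through GF/B filters; 10 μM phentolamine defines nonspecific binding.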

The test system of another data set is human prostatic tissue. Briefly: In vitro human prostate model: block of phenylephrine-induced contraction of human prostatic tissue. Type of data set: cell-based. As to conditions: block of phenylephrine-induced contraction of human prostate.
The next data set concerns canine prostate. Put plainly: In vivo dog prostate model: inhibition of phenylephrine-induced increase in urethral pressure in anesthetized dogs. Particulars: inhibition of phenylephrine-induced increases in urethral pressure, anesthetized dogs.
[1] abbreviates: LM(tk-) cell line L-NGC-α2B, SEM and n in lines below.

Where a name gives a salt, the structure may show the parent alone.

Protocol for canine prostate: Protocol for In Vivo Evaluation of Compounds in Canine Prostate
Adult male mongrel dogs more than one year of age were chosen for the model. After induction of general anesthesia using sodium pentobarbital (25 mg/Kg i.v.), the animals were intubated and allowed to breathe spontaneously. An arterial catheter was inserted via the femoral artery to monitor blood pressure and i.v. line was inserted into the leg for fluid and drug administration. A constant saline infusion was maintained at 40 to 50 mL/h. Next, a seven cm lower abdominal incision was made one cm lateral to the penis.
The bladder, prostate and a short segment of urethra were identified and isolated, without damage to the nerves or blood vessels. A cystotomy incision was made through which the pressure catheter was inserted and positioned in the prostatic urethra. The cystotomy was not closed, but the wound edges were sutured to stop bleeding. The tip of the catheter was positioned just distal to the prostate and secured in place with an O-silk tie around the urethra. A second holding suture at the bladder neck secured the catheter in place.
Fluid, either water or saline, was pumped by a Harvard infusion pump at 0.1 mL/min through a Gould pressure transducer into the catheter. The fluid exists at a port in the catheter which is in the prostatic urethra. Occlusion of the port, by contraction of the prostate, blocks the flow and a pressure wave is created. This pressure is transmitted back through the catheter to the transducer which is attached to a Gould recorder. Squeezing the prostate gland caused an increase in urethral pressure which verified the correct position in the urethra.
The compounds were tested as follows: A dose response curve was first generated for phenylephrine alone, in doses ranging from one μg/Kg to 50 μg/Kg. The absolute rise in urethral pressure was recorded for each dose and the next dose given when the urethral pressure returned to baseline. Phenylephrine dose response curves were generated in all animals tested. Increasing doses of compounds were then given, and the phenylephrine dose response curve repeated in the prepense of each dose of the compound. No animal received more than one compound; four animals were used to test each compound. To test for tachyphylaxis, four separate dogs were challenged with repeated phenylephrine doses for six hrs, the usual length of each experiment. From the dose-effect data, the inhibition constant (Ki) and the median-effect dose (ED50) were calculated. Both the Ki and ED50 values given are calculated by using microcomputer software and an IBM-PC.

As to `CCC1=C(C(=O)NC)C(c2ccc([N+](=O)[O-])cc2)C(C(=O)NCCCN2CCC(c3ccccc3)(c3ccccc3)CC2)=C(CC)N1` (stereo not drawn) [Example 128, 2,6-Diethyl-1,4-dihydro-5-(N-methyl)carboxamido-4-(4-nitrophenyl)-3-{N-[3-(4,4-diphenylpiperidin-1-yl)propyl]}carboxamidopyridine], the melting point is 123 to 126 °C. At α2B receptor (human α2B receptor, LM(tk−) cells), this compound gave a Ki of 437 nM. In addition, the pA2 in the data set with human prostatic tissue was found to be 8.21 ± 0.06.

With `CCC1=C(C(N)=O)C(c2ccc([N+](=O)[O-])cc2)C(C(=O)NCCCN2CCC(c3ccccc3)(c3ccccc3)CC2)=C(CC)N1` (stereo not drawn) [Example 42, 5-carboxamido-2,6-diethyl-1,4-dihydro-4-(4-nitrophenyl)-3-{N-[3-(4,4-diphenylpiperidin-1-yl)propyl]}carboxamidopyridine], the melting point fell in the range of 119 to 123 °C. Further, at α2B receptor (setting [1]), affinity was put at a Ki of 229 nM. The pA2 with human prostatic tissue is given as 8.92 ± 0.08. Further, in the data set on canine prostate, the “Urethral Pressure K i” value was determined as 9 ± 2.5 nmol/kg.

On to `CCC1=C(C(=O)NCCCN2CCC(c3ccccc3)(c3ccccc3)CC2)C(c2ccc([N+](=O)[O-])cc2)C(C(N)=O)=C(C)N1` (stereo not drawn) [Example 81, 5-carboxamido-2-ethyl-1,4-dihydro-6-methyl-4-(4-nitro)phenyl-3-(N-(3-(4,4-diphenylpiperidin-1-yl)propyl))carboxamidopyridine hydrochloride], for which, at α2B receptor (setting [1]), the Ki is 162 nM. Moreover, the pA2 with human prostatic tissue is given as 8.60 ± 0.03.
